According to ChEMBL document CHEMBL5233238, “Research progress on sirtuins family members and cell senescence” (2020):

Assays:
Assay type in all cases: functional
Caenorhabditis elegans [1] = assay: Regulation of metabolic activity in […] assessed as increasing in average life span at 25 mol/L relative to control
Caenorhabditis elegans [2] = assay: Regulation of metabolic activity in […] assessed as increasing in average life span at 50 mol/L relative to control
Caenorhabditis elegans [3] = assay: Regulation of metabolic activity in […] assessed as increasing in average life span at 100 mol/L relative to control

For `CN(C)C(=N)NC(=N)N` [METFORMIN], the Activity (Caenorhabditis elegans [1]) was 18%, the Activity (Caenorhabditis elegans [2]) was 36% and the Activity (Caenorhabditis elegans [3]) was 3%.
